Source: patent publication US20260207621A1 (Vividion Therapeutics, Inc., priority 2022, published 2026)

Columns and labels:
KEAP1 C151 = molecular target: T1, KEAP1 C151 (Homo sapiens, UniProt Q14145); experiment: Nrf2 TMT measurement: in vitro TE50 for KEAP1 C151 (IA-DTB competition, targeted TMT mass spectrometry) in MDA-MB-468 cell lysate; format: binding; details: in vitro target engagement of KEAP1 C151, targeted TMT, read-out: KEAP1_C151 TE50
T1 construct: treating 500 μg of cell lysate generated from MDA-MB-468 breast cancer cells with DMSO or compound; endogenous in cells; host or cells: MDA-MB-468 breast cancer cell lysate
How it was run: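 Occupancy of KEAP1 C151 measured as loss of IA-DTB labeling (200 μM, 1 h, room temperature) after 1 h compound pre-treatment of MDA-MB-468 cell lysate.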

Nrf2 = Nrf2 antagonism assay: ARE luciferase reporter in KYSE-70 cells; format: cell-based; details: positive Imax corresponds to Nrf2 antagonism; for Emax: Homo sapiens, KYSE-70, KYSE-70 cells, read-out: KYSE70 Cellular ARE Luciferase Imax (%); for KYSE70 Cellular ARE Luciferase Imax (%): KYSE-70 cells
How it was run: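 Dose-response curves give IC50 and Imax, with positive Imax read as Nrf2 antagonism, i.e. reduced luciferase signal. Reporter cells are Nrf2-high KYSE-70 (Nrf2 W24C mutant) bearing ARE-controlled luciferase. Antagonists are proposed to act at KEAP1 C151, speeding Nrf2 degradation.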

T1 sequence (Q14145 whole entry): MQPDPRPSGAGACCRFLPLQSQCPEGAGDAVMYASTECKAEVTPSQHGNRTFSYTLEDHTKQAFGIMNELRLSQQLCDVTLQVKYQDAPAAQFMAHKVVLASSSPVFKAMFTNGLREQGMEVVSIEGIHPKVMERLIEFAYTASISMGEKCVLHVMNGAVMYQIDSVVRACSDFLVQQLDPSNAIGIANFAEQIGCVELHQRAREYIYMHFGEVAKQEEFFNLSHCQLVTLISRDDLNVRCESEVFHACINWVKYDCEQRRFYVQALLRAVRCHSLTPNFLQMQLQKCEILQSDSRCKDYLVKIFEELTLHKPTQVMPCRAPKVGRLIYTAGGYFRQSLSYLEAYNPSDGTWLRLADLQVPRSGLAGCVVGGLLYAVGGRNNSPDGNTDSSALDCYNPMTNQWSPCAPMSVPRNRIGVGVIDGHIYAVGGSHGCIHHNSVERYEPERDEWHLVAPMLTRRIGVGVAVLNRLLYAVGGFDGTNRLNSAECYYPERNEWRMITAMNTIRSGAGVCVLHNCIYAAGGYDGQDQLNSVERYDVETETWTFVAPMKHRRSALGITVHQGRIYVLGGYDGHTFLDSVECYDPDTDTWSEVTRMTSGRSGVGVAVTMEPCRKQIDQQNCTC

| IC50 (KEAP1 C151) | SMILES | Emax (Nrf2) | KYSE70 Cellular ARE Luciferase Imax (%) (Nrf2) |
| --- | --- | --- | --- |
| 5.3 nM | C=CC(=O)N1CC2(CC2)S(=O)(=O)CC1c1cc(Cl)cc(-c2nccc(N)n2)c1 (single isomer, unassigned) [Compound 249, 1-(6-(3-(4-aminopyrimidin-2-yl)-5-chlorophenyl)-4,4-dioxido-4-thin-7-azaspiro[2.5]octan-7-yl)prop-2-en-1-one] | 89% |  |
| 36 nM | C=CC(=O)N1CCOC[C@H]1c1cc(Cl)cc(-c2cncc(N)n2)c1 (single isomer, unassigned) [Compound 250] | 92% |  |
| 17 nM | C=CC(=O)N1CCOC[C@H]1c1cc(Cl)cc(-c2cnc(N)cn2)c1 (single isomer, unassigned) [Compound 251] | 93% |  |
| 86 nM | C=CC(=O)N1CCOC[C@H]1c1cc(Cl)cc(-c2ncc(N)c(OC)n2)c1 (single isomer, unassigned) [Compound 254] | 92% |  |
| 50 nM | C=CC(=O)N1CCOC[C@H]1c1cc(Cl)cc(-c2cnc(N)c(OC)n2)c1 (single isomer, unassigned) [Compound 255] | 93% |  |
| 86 nM | C=CC(=O)N1CCOC[C@H]1c1cc(Cl)cc(-c2nccc(NC(C)=O)n2)c1 (single isomer, unassigned) [Compound 256] | 63% |  |
| 16 nM | C=CC(=O)N1CCOC[C@H]1c1cc(Cl)cc(-c2cnc(N)c(N)n2)c1 (single isomer, unassigned) [Compound 258] | 93% |  |
| 140 nM | C=CC(=O)N1CCOC[C@H]1c1cc(Cl)cc(-c2cnc(OC)c(N)n2)c1 (single isomer, unassigned) [Compound 259] | 93% |  |
| 19 nM | C=CC(=O)N1CCOC[C@H]1c1cc(Cl)cc(-c2ncc(F)c(N)n2)c1 (single isomer, unassigned) [Compound 263] | 93% |  |
| 160 nM | C=CC(=O)N1CC[C@@](C)(O)C[C@@H]1c1cc(Cl)cc(-c2ncc(N)cn2)c1 (single isomer, unassigned) [Compound 264] | 86% |  |
| 11200 nM | C=CC(=O)N1CC[C@](C)(O)C[C@H]1c1cc(Cl)cc(-c2ncc(N)cn2)c1 (single isomer, unassigned) [Compound 265] | 51% |  |
| 320 nM | C=CC(=O)N1CC[C@](C)(O)C[C@@H]1c1cc(Cl)cc(-c2ncc(N)cn2)c1 (single isomer, unassigned) [Compound 266] | 90% |  |
| 10 nM | C=CC(=O)N1CC2(CC2)N(C(=O)C2CC2)CC1c1cc(Cl)cc(-c2ncc(N)cn2)c1 (single isomer, unassigned) [Compound 267] | 94% |  |
| 490 nM | C=CC(=O)N1CCOC[C@H]1c1cc(Cl)cc(-c2nc(Cl)ncc2N)c1 (single isomer, unassigned) [Compound 268] | 53% |  |

Further lines, the molecule ahead of its results:

| SMILES | IC50 (KEAP1 C151) | Emax (Nrf2) | KYSE70 Cellular ARE Luciferase Imax (%) (Nrf2) |
| --- | --- | --- | --- |
| C=CC(=O)N1CCOC[C@H]1c1cc(Cl)cc(C2CNC(=O)N(C)C2)c1 (single isomer, unassigned) [Compound 216] | 140 nM | 86% |  |
| C=CC(=O)N1CCOC[C@H]1c1cc(Cl)cc(C2CNC(=O)N(C)C2)c1 (single isomer, unassigned) [Compound 217] | 30 nM |  | 78% |
| C=CC(=O)N1CCOC[C@H]1c1cc(Cl)cc(-c2nc(N)nc(NC)n2)c1 (single isomer, unassigned) [Compound 218] | 16 nM | 92% |  |
| C=CC(=O)N1CCOC[C@H]1c1cc(Cl)cc(-c2ncc(C(N)=O)o2)c1 (single isomer, unassigned) [Compound 220] | 49 nM | 73% |  |
| C=CC(=O)N1CCOC[C@H]1c1cc(Cl)cc(-c2ncnc(NCCCN(C)C)n2)c1 (single isomer, unassigned) [Compound 221] | 280 nM | 78% |  |
| C=CC(=O)N1CCOC[C@H]1c1cc(Cl)cc(C2CNC(=O)NC2)c1 (single isomer, unassigned) [Compound 222] | 330 nM | 85% |  |
| C=CC(=O)N1[C@H](c2cc(Cl)nc(-c3cc(C(N)=O)ncn3)c2)COC[C@H]1C(F)F (single isomer, unassigned) [Compound 223] | 3.5 nM | 94% |  |
| C=CC(=O)N1CCOC[C@H]1c1cc(Cl)cc(-c2nc(C(N)=O)co2)c1 (single isomer, unassigned) [Compound 224] | 170 nM | 90% |  |
| C=CC(=O)N1CCOC[C@H]1c1cc(Cl)cc(C2CNC(=S)N(C)C2)c1 (single isomer, unassigned) [Compound 226] | 200 nM | 85% |  |
| C=CC(=O)N1CCOC[C@H]1c1cc(Cl)cc(C2CNC(=S)N(C)C2)c1 (single isomer, unassigned) [Compound 227] | 95 nM |  | 90% |
| C=CC(=O)N1CCOC[C@H]1c1cc(Cl)cc(N2CCNC(=O)C2)c1 (single isomer, unassigned) [Compound 228] | 130 nM | 79% |  |
| C=CC(=O)N1CCOC[C@H]1c1cc(Cl)cc(-c2nc(N)nc(NCCCN(C)C)n2)c1 (single isomer, unassigned) [Compound 229] | 560 nM | 92% |  |
| C=CC(=O)N1CCOC[C@H]1c1cc(Cl)cc(N2CCC(N)C2=O)c1 (single isomer, unassigned) [Compound 230] | 820 nM | 51% |  |
| C=CC(=O)N1CCOC[C@H]1c1cc(Cl)cc(C2CNC(=O)CO2)c1 (single isomer, unassigned) [Compound 231] | 320 nM |  | 55% |
| C=CC(=O)N1CCOC[C@H]1c1cc(Cl)cc(C2CNC(=O)CO2)c1 (single isomer, unassigned) [Compound 232] | 140 nM |  | 84% |
| C=CC(=O)N1CCOC[C@H]1c1cc(Cl)cc(C2CNC(=S)NC2)c1 (single isomer, unassigned) [Compound 233] | 660 nM | 83% |  |

| SMILES | IC50 (KEAP1 C151) | Emax (Nrf2) | KYSE70 Cellular ARE Luciferase Imax (%) (Nrf2) |
| --- | --- | --- | --- |
| C=CC(=O)N1CCOC[C@H]1c1cc(Cl)cc(-c2cnc(N)o2)c1 (single isomer, unassigned) [Compound 234] | 220 nM | 89% |  |
| C=CC(=O)N1CCOC[C@H]1c1cc(Cl)cc(-c2cc(N)[nH]n2)c1 (single isomer, unassigned) [Compound 235] | 110 nM | 86% |  |
| C=CC(=O)N1C[C@@H](C)N(C(C)=O)C[C@@H]1c1cc(Cl)cc(-c2ncc(N)cn2)c1 (single isomer, unassigned) [Compound 236] | 25 nM |  | 87% |
| C=CC(=O)N1C[C@@H](C)N(C(C)=O)C[C@@H]1c1cc(Cl)cc(-c2ncc(N)cn2)c1 (single isomer, unassigned) [Compound 237] | 140 nM |  | 50% |
| C=CC(=O)N1CC(F)(F)CCC1c1cc(Cl)cc(-c2ncc(N)cn2)c1 (single isomer, unassigned) [Compound 238, 1-(2-(3-(5-aminopyrimidin-2-yl)-5-chlorophenyl)-5,5-difluoropiperidin-1-yl)prop-2-en-1-one] | 34 nM | 82% |  |
| C=CC(=O)N1CCCCC1c1cc(Cl)cc(-c2ncc(N)cn2)c1 (single isomer, unassigned) [Compound 239, 1-(2-(3-(5-aminopyrimidin-2-yl)-5-chlorophenyl)piperidin-1-yl)prop-2-en-1-one] | 220 nM | 83% |  |
| C=CC(=O)N1CCOC[C@H]1c1cc(Cl)cc(C2CNC(=S)CO2)c1 (single isomer, unassigned) [Compound 240] | 150 nM |  | 61% |
| C=CC(=O)N1CCOC[C@H]1c1cc(Cl)cc(C2CNC(=S)CO2)c1 (single isomer, unassigned) [Compound 241] | 170 nM |  | 87% |
| C=CC(=O)N1CCOC[C@H]1c1cc(Cl)cc(C2CCNC(=O)N2)c1 (single isomer, unassigned) [Compound 242] | 250 nM | 59% |  |
| C=CC(=O)N1C[C@@H](C)N(C(=O)C2CC2)C[C@@H]1c1cc(Cl)cc(-c2ncc(N)cn2)c1 (single isomer, unassigned) [Compound 243] | 22 nM | 88% |  |
| C=CC(=O)N1CCOC[C@H]1c1cc(Cl)cc(N2CCN=C(N)C2)c1 (single isomer, unassigned) [Compound 244] | 150 nM | 81% |  |
| C=CC(=O)N1C[C@@H](C)N(C(=O)C2CC2)C[C@H]1c1cc(Cl)cc(-c2ncc(N)cn2)c1 (single isomer, unassigned) [Compound 245] | 90 nM | 53% |  |
| C=CC(=O)N1CC(C)(C)S(=O)(=O)CC1c1cc(Cl)cc(-c2nccc(N)n2)c1 (single isomer, unassigned) [Compound 246, 1-(5-(3-(4-aminopyrimidin-2-yl)-5-chlorophenyl)-2,2-dimethyl-1,1-dioxidothiomorpholino)prop-2-en-1-one] | 43 nM | 90% |  |
| C=CC(=O)N1CCC(F)(F)CC1c1cc(Cl)cc(-c2ncc(N)cn2)c1 (single isomer, unassigned) [Compound 247, 1-(2-(3-(5-aminopyrimidin-2-yl)-5-chlorophenyl)-4,4-difluoropiperidin-1-yl)prop-2-en-1-one] | 16 nM | 91% |  |
| C=CC(=O)N1CCOC[C@H]1c1cc(Cl)cc(-c2ncc(NC(C)=O)cn2)c1 (single isomer, unassigned) [Compound 248] | 10 nM | 89% |  |
